# Measurements: US4731473A, “Compounds useful in treating sickle cell anemia” (Merck & Co., Inc., priority 1986, dated 1988)
# Structures can show the parent of a compound that is named as a salt.
# What was measured:
# HbS = experiment: Chromatographic separation: covalent binding to HbS
# erythrocyte membranes = experiment: Tests of transport across erythrocyte membranes; type: cell-based
# sickle hemoglobin (HbS) = sickle hemoglobin (HbS) (Homo sapiens, UniProt P68871+P69905, E7V); experiment: solubility or Csat assay: solubility of deoxygenated sickle hemoglobin (Hofrichter et al.); type: biochemical; settings: low concentrations (5 mM); versus dichlorobenzyloxyacetic acid and p-bromobenzyloxyacetic acid
# Text: One major assay for evaluating antisickling agents involves measuring their effect on increasing the concentration at which sickle hemoglobin forms a gel. This is called the solubility or Csat assay.
# The solubility assay (Csat assay) measures the ability of a compound to increase solubility of sickle hemoglobin (HbS). […] The higher the ratio, the higher the activity of the compound.
# In order to confirm the effectiveness of these compounds in reducing the effect of sickle cell anemia, tests were performed. The materials were tested according to the assay (Csat) developed by Hofrichter et al. (J. Hofrichter, P. D. Ross and W. A. Eaton, Proc. Natl. Acad. Sci., U.S.A. 73, 30-35, 1976). This assay involves deoxygenation of concentrated sickle hemoglobin with dithionite in the presence of different concentrations of the drugs being tested. Samples are then sealed in quartz epr tubes under anaerobic conditions and spun at about 150,000 g for about 21/2 hours at about 35° C. in an ultracentrifuge. This procedure pellets the polymerized HbS (sickle hemoglobin) to the bottom of the tubes and the supernatant (soluble HbS) is measured in the laboratory as the cyanmethemoglobulin derivative. […] Activity is reported as a ratio of the HbS solubility with the particular drug to HbS solubility with no drug, i.e. control. The higher the ratio the greater degree of activity of the drug. […]
smiles,measurement,setting,value
"C=C(CC)C(=O)c1ccc(OCCCC(=O)O)c(Cl)c1Cl [sodium salt of 4-[2,3-dichloro-4-(2-methylenebutyryl)phenoxy]butyric acid]",covalent binding between HbS and the agent (in words),HbS,desired tight covalent binding between the HbS and the therapeutic agent had occurred
same,ability to cross the red blood cell membrane and react with hemoglobin (in words),erythrocyte membranes,confirmed the ability of the agent to cross the red blood cell membrane and react with hemoglobin
same,solubility ratio compared with other antisickling agents (in words),sickle hemoglobin (HbS),exhibited a higher solubility ratio than other antisickling agents
